Test results reported in US4049695A, “3-((3-Trifluoromethyl)phenyl)sulfonyl)-2-propenenitrile” (The Dow Chemical Company, priority 1976, dated 1977).
In brackets after ≈: the same amount, converted by molar mass.

How the values were obtained:
Experiment in all cases: in vitro agar Petri dish dilution test
Type in all cases: cell-based
[1] = tested on: A. fumigatus; settings: Aspergillus fumigatus, 100% inhibition, read-out: Minimum Inhibitory Concentration
Source text: (§1) The inventive product has antimicrobial activity. In the conventional in vitro agar Petri dish dilution test for determining bactericidal and fungicidal activity, the compound gave 100% inhibition against the indicated organisms at the following concentrations in parts per million, the tabulated values being indicated as minimum inhibitory concentrations (MIC).

[2] = tested on: A. niger; settings: Aspergillus niger, 100% inhibition, read-out: Minimum Inhibitory Concentration
Source text: as §1

[3] = tested on: B. subtilis; settings: Bacillus subtilis, 100% inhibition, read-out: Minimum Inhibitory Concentration
Source text: as §1

[4] = tested on: C. albicansNIH; settings: Candida albicans, 100% inhibition, read-out: Minimum Inhibitory Concentration
Source text: as §1

[5] = tested on: C. albicans; settings: Candida albicans, 100% inhibition, read-out: Minimum Inhibitory Concentration
Source text: as §1

[6] = tested on: C. ips; settings: 100% inhibition, read-out: Minimum Inhibitory Concentration
Source text: as §1

[7] = tested on: C. pelliculosa; settings: Hansenula anomala, 100% inhibition, read-out: Minimum Inhibitory Concentration
Source text: as §1

[8] = tested on: E. coli ATCC 11229; settings: Escherichia coli, ATCC11229, 100% inhibition, read-out: Minimum Inhibitory Concentration
Source text: as §1

[9] = tested on: K. pneumoniae M-1 Midland Hospital; settings: Klebsiella pneumoniae, 100% inhibition, read-out: Minimum Inhibitory Concentration
Source text: as §1

[10] = tested on: P. chrysogenum; settings: Penicillium chrysogenum, 100% inhibition, read-out: Minimum Inhibitory Concentration
Source text: as §1

[11] = tested on: P. pullulans; settings: 100% inhibition, read-out: Minimum Inhibitory Concentration
Source text: as §1

[12] = tested on: Pseudomonas Sp. Strain 10; settings: 100% inhibition, read-out: Minimum Inhibitory Concentration
Source text: as §1

[13] = tested on: S. aureus; settings: Staphylococcus aureus, 100% inhibition, read-out: Minimum Inhibitory Concentration
Source text: as §1

[14] = tested on: S. marcescens NIH; settings: Serratia marcescens, 100% inhibition, read-out: Minimum Inhibitory Concentration
Source text: as §1

[15] = tested on: S. typhosa; settings: 100% inhibition, read-out: Minimum Inhibitory Concentration
Source text: as §1

[16] = tested on: T. mentagrophytes; settings: Trichophyton mentagrophytes, 100% inhibition, read-out: Minimum Inhibitory Concentration
Source text: as §1

[17] = tested on: Torulopsis Species; settings: 100% inhibition, read-out: Minimum Inhibitory Concentration
Source text: as §1

[18] = tested on: Trichoderm Sp. Madison P-42; settings: 100% inhibition, read-out: Minimum Inhibitory Concentration
Source text: as §1

In the case of N#CC=CS(=O)(=O)c1cccc(C(F)(F)F)c1 [3-((3-(Trifluoromethyl)phenyl)sulfonyl)-2-propenenitrile], the MIC [1] is reported as 50 µg/mL (≈ 191 µM), the MIC [2] is reported as 50 µg/mL (≈ 191 µM) and the MIC [3] is reported as 5 µg/mL (≈ 19.1 µM). The MIC [4] was 50 µg/mL (≈ 191 µM), the MIC [5] was 50 µg/mL (≈ 191 µM) and the MIC [6] was 10 µg/mL (≈ 38.3 µM). For the same compound, the MIC [7] was 10 µg/mL (≈ 38.3 µM), the MIC [8] was 50 µg/mL (≈ 191 µM) and the MIC [9] was 50 µg/mL (≈ 191 µM). The MIC [10] was 50 µg/mL (≈ 191 µM), the MIC [11] was 50 µg/mL (≈ 191 µM) and the MIC [12] was 100 µg/mL (≈ 383 µM). The MIC [13] was 5 µg/mL (≈ 19.1 µM), the MIC [14] was 50 µg/mL (≈ 191 µM) and the MIC [15] was 5 µg/mL (≈ 19.1 µM). For the same compound, the MIC [16] was 10 µg/mL (≈ 38.3 µM), the MIC [17] was 50 µg/mL (≈ 191 µM) and the MIC [18] was 50 µg/mL (≈ 191 µM).
